# From patent publication US20250345309A1, “IMMUNE HEALTH IMPROVERS” (Amazentis SA, priority 2024, published 2025)
# Assays:
# [1] = Laboratory chemistry / biochemical safety analysis; format: in vivo, human
# Procedure: During the baseline and follow-up visits, blood was drawn by a physician or physician's assistant to assess blood biochemistry parameters and haematology. Analysis was performed using clinically validated systems at the University Hospital Frankfurt, Germany.
# circulating immune cells = assay: Clinical hemocytometry of circulating immune cells; format: in vivo, human; conditions: d28 vs baseline, 1000 mg/day oral
# Procedure: During the baseline and follow-up visits, blood was drawn by a physician or physician's assistant to assess blood biochemistry parameters and haematology. Analysis was performed using clinically validated systems at the University Hospital Frankfurt, Germany. The aim of the present study was to globally assess the effect of UA on the immune system, in particular with respect to parameters of immune aging. We therefore performed clinical hemocytometry to first categorize circulating immune cells, comparing immune composition at baseline and upon the last study visit (FIG. 1A).
# PBMCs [2] = assay: Mitochondrial analysis of PBMCs (Mitotracker Green, MitotrackerRedCMXROS, PGC-1α, Parkin); format: in vivo, human
# Procedure: PBMCs were thawed as depicted above and cultured in T cell medium (RPMI (ThermoFisher Scientific) 10% FBS (South America origin), 10 mM Hepes (Sigma), 1× Non-Essential Amino Acid, 1 mM Sodium Pyruvate, 50 μM β-Mercaptoethanol, 100 U/ml penicillin, 100 μg/ml streptomycin and 2 mM Glutamax (ThermoFisher Scientific)) overnight. After washing, cells were reconstituted in T cell medium containing respective staining agent: for labelling of mitochondrial mass, Mitotracker Green (Invitrogen) was used at a concentration of 40 nM for 30 mins at 37° C. Mitochondrial membrane potential was assessed via MitotrackerRedCMXROS. Cells were then stained with a combination of CD3 vFlour 450, PE-Cy7 CD4, APC-Cy7 CD8, CCR7 APC, CD45RA FITC and Ghost Violet510. To assess expression of peroxisome proliferator-activated receptor gamma coactivator 1-alpha (PGC-1α), cells were rested for four hours after thawing, then stained with the panel above for 15 mins at 4° C. After washing in FACS buffer, cells were permeabilized and fixed using the eBioscience™ Foxp3/Transcription Factor Staining Buffer Set, followed by staining with PGC-1α (sc-518025; D-5; Santa Cruz) antibody. To assess the expression of Parkin, cells were first stained with CD4 BV786, CD8 PECF 594, CD3 BUV 395, CD45RA FITC, CD14 eF450 and live/dead 780, followed by permeabilization and fixation with transcription factor buffer set kit (BD Biosciences). For mitochondrial analysis, cells were finally fixed in 1% PFA and analyzed on a Cytek Aurora cytometer. Samples were unmixed using reference controls generated in combination with stained Ultracomp beads (Fisher Scientific, 01-2222-41).
# T cells = assay: T cell stimulation assay (αCD3/αCD28 beads, four days); format: in vivo, human; conditions: PBMCs ex vivo
# Procedure: To study the antigen response of T cells, 0.5×10^6 thawed PBMCs were pre-stained with CellTrace Violet (C34557 ThermoFisher Scientific) according to the manufacturer's instructions. After washing, they were plated in a 24 well plate for 24 h to deplete monocyte populations by plastic adherence. Next, cells in suspension were transferred to a new tube and centrifuged at 350 g for 5 min, followed by reconstitution in fresh T cell medium. Cells were stimulated with human αCD3/C28 stimulation beads (Dynabeads, ThermoFirsher) for four days, using a ratio of 25 μl Beads per 0.5×10^6 cells. Following the stimulation period, magnetic beads were discarded via magnetic separation and cells were stained with PE-Cy7 CD4, APC-Cy7CD8, CD45RA FITC, CCR7 AF700 and live/dead ef780. To study cytokine expression, Brefeldin A (Biolegend) was added to stimulated PBMCs for the last 3 hours. Cells were then washed and stained using the panel above, while intracellular staining for cytokine assessment was performed with BD Cytofix/Cytoperm (BD) with 20 min fixation and overnight incubation with αIL-4-CF594, αIFNγ-PE (XMG1.2; 45-7311-82; eBioscience) and αTNFa-APC (MP6-XT22; 563944; BD). Finally, samples were fixed with 1% PFA until data acquisition. To functionally characterize the human immune system after systemic UA supplementation further, proliferative capacity and cytokine secretion of T cells was assessed. PBMCs from both intervention groups were incubated in the presence of αCD3/αCD28 stimulation beads for a total of four days (FIG. 10A).
# DNA methylation = DNA methylation biological age clocks (TruDiagnostic); format: in vivo, human; conditions: d28 vs start of intervention, 1000 mg/day oral; no decrease with placebo
# Excerpt: Blood taken from the participants at baseline and the last study visit (d28) time points were applied to dried blood cards and processed by TruDiagnostic™. The test uses DNA methylation data analysis to calculate biological ages using the PhenoAge 2nd generation clock and the Hannum 1st generation clock. The Urolithin A intervention group's biological (immune cell-blood based) age was reduced by a median of about 2 years from the start of the intervention, as calculated by the PhenoAge clock (FIG. 11A). […] A decrease in biological age was not observed in the Placebo group.
# PBMCs [3] = assay: Single cell RNA sequencing of PBMCs; format: in vivo, human
# [4] = human, in vivo
# TSCM = conditions: in vitro (Denk et al. Immunity 2022); cited from earlier work
# [5] = after 28 days, 1000 mg/day oral
# [6] = after 28 days of UA compared to placebo
compound,measurement,setting,value
O=c1oc2cc(O)ccc2c2ccc(O)cc12 [Urolithin A],Bilirubin (mean ± SD),"[1]; Group A d 28, 1000 mg/day oral, d 0 0.53 ± 0.31, p 0.28 n.s.",0.49 ± 0.26 mg/dL
same,Creatinine (mean ± SD),"[1]; Group A d 28, 1000 mg/day oral, d 0 0.82 ± 0.13, p 0.80 n.s.",0.81 ± 0.11 mg/dL
same,Albumin (mean ± SD),"[1]; Group A d 28, 1000 mg/day oral, d 0 4.54 ± 0.24, p 0.85 n.s.",4.55 ± 0.24 g/dL
same,Uric acid (mean ± SD),"[1]; Group A d 28, 1000 mg/day oral, d 0 4.86 ± 1.43, p 0.25 n.s.",5.04 ± 1.79 mg/dL
same,Total Serum Protein (mean ± SD),"[1]; Group A d 28, 1000 mg/day oral, d 0 7.02 ± 0.38, p 0.59 n.s.",7.06 ± 0.35 g/dL
same,gGT (mean ± SD),"[1]; Group A d 28, 1000 mg/day oral, d 0 24.60 ± 15.90, p 0.07 n.s.",27.13 ± 19.19 U/I
same,AST (mean ± SD),"[1]; Group A d 28, 1000 mg/day oral, d 0 27.26 ± 11.56, p 0.76 n.s.",28.04 ± 16.10 U/I
same,ALT (mean ± SD),"[1]; Group A d 28, 1000 mg/day oral, d 0 28.00 ± 24.02, p 0.38 n.s.",29.44 ± 30.27 U/I
same,HDL cholesterol (mean ± SD),"[1]; Group A d 28, 1000 mg/day oral, d 0 66.06 ± 13.51, p 0.06 n.s.",62.98 ± 17.58 mg/dL
same,AP (mean ± SD),"[1]; Group A d 28, 1000 mg/day oral, d 0 75.40 ± 20.60, p 0.15 n.s.",73.28 ± 19.22 U/I
same,LDL cholesterol (mean ± SD),"[1]; Group A d 28, 1000 mg/day oral, d 0 136.6 ± 33.95, p 0.89 n.s.",136.2 ± 30.56 mg/dL
same,Triglycerides (mean ± SD),"[1]; Group A d 28, 1000 mg/day oral, d 0 154.0 ± 98.53, p 0.53 n.s.",143.2 ± 70.34 mg/dL
same,Total Cholesterol (mean ± SD),"[1]; Group A d 28, 1000 mg/day oral, d 0 212.5 ± 33.60, p 0.89 n.s.",213.0 ± 33.48 mg/dL
same,"Changes in metabolic markers, kidney function parameters and liver enzymes","[1]; after the 28-day intervention period, 1000 mg/day oral",No significant changes
same,Monocytes (total count),circulating immune cells,did not show marked alterations
same,Neutrophiles (total count),circulating immune cells,did not show marked alterations
same,Total leukocytes (count),circulating immune cells,did not show marked alterations
same,Circulating eosinophiles (total count),circulating immune cells; not observed with placebo,significantly more
same,Circulating lymphocytes (total count),circulating immune cells; not observed with placebo,significantly more
same,"Mitochondrial content in several CD8+ subsets (TN, TEM, TCM, TEFF)",PBMCs [2]; [5],Increased
same,Mitochondrial content of CD4+ cells,PBMCs [2]; [5],no significant change
same,Mitochondrial mass: proportion of MTGHi cells in CD8+ cells,"PBMCs [2]; after 28 days, 1000 mg/day oral, absent in placebo",increased
same,PGC-1α expression in CD8+ cells,"PBMCs [2]; after intervention period (d28), 1000 mg/day oral, no change with placebo",stronger expression
same,Mitochondrial membrane potential (MMP) in CD8+ cells,"PBMCs [2]; d28, 1000 mg/day oral",significantly lower
same,PGC-1α in CD4+ cells,"PBMCs [2]; d28, 1000 mg/day oral",no significant induction
same,Reduction of MMP in CD4+ cells,"PBMCs [2]; d28, 1000 mg/day oral",absent
same,Reduction of MMP in CD8 subsets,"PBMCs [2]; d28, 1000 mg/day oral",retained
same,Parkin protein expression,"PBMCs [2]; study visits at seven days or 28 days, 1000 mg/day oral",Change in Parkin protein expression was detected
same,CD8+ TCM/TEM phenotype distribution after CD3 receptor engagement,T cells,no treatment-specific distribution pattern
same,T cell proliferation,"T cells; UA vs placebo, baseline vs d28",no difference
same,CD8+ expression of IFN-γ when stimulated,T cells; baseline vs d28,remained unchanged
same,IL-4 production of antigen challenged CD8+ cells,"T cells; baseline vs d28, no change with placebo",reduced
same,"Reduction of biological (immune cell-blood based) age, PhenoAge clock, median",DNA methylation,about 2 years
same,Activation markers CD69 and CXCR4 in NK cells,PBMCs [3]; after 28 days of UA,reduction
same,"Electron transport chain components (MT-ND5, MT-CO1, MT-CO2) in naïve T cells",PBMCs [3]; after 28 days of UA,induced
same,"Immediate-early genes (NR4A2, DUSP1, FOS, JUN, NFKBIA) in NK cells",PBMCs [3]; after 28 days of UA,reduction
same,"Inflammatory gene signature (MX1, XAF1, ISG15, TNSF10) in B cells",PBMCs [3]; after 28 days of UA,downregulated
same,"Interferon response pathway genes (IFITM2, IER2, STAT1) in monocytes",PBMCs [3]; after 28 days of UA,Strongest downregulation
same,"Mitochondrial genes (MT-CYB, MT-ND5, MT-ATP8, MT-CO1) and NAMPT in monocytes",PBMCs [3]; after 28 days of UA,strong upregulation
same,"Protein Kinase A (PKA) signaling and other immune inhibitory pathways, CD8+ T cells",PBMCs [3]; after 28 days of UA,strongly inhibited
same,"T cell receptor (TCR) signaling, canonical pathway analysis, CD8+ T cells",PBMCs [3]; after 28 days of UA,activation
same,cAMP-responsive element modulator (CREM) in CD8+ TEM subset,PBMCs [3]; after 28 days of UA,downregulation
same,"Differentially expressed genes in CD8+ T cells, down",PBMCs [3]; [6],37 genes
same,"Differentially expressed genes in CD8+ T cells, up",PBMCs [3]; [6],52 genes
same,"Genes associated with T cell exhaustion, suppression and hypofunction (NR4A2, CREM, TGFB1, METRNL) in CD8+ T cells",PBMCs [3]; [6],downregulated
same,IL7R in CD8+ T cells,PBMCs [3]; [6],induction
same,Wnt-associated stemness transcription factors TCF7 and LEF1 in CD8+ T cells,PBMCs [3]; [6],upregulation
same,"Differentially expressed genes in CD8+ T cells, total","PBMCs [3]; after 28 days of UA compared to placebo, five participants",89 genes
same,Intensity of adverse events noted during the study,[4],all mild
same,TSCM formation,TSCM,induces TSCM formation
